Results published in paper PMC10503991, “Synthesis of some new isoxazole compounds and their biological tyrosinase and antioxidant activities” (Turkish Journal of Chemistry, 2021).

Tests used:
[1] = Cupric ion reducing (CUPRAC) method; conditions: for CUPRAC (mg TEAC/mg): trolox equivalents per mg compound
Procedure: The capacity of 8–14 compounds to reduce cupric ions was established as it was described before. A reaction mixture was prepared by mixing a volume of CuCl2 (0.250 mL, 10 mM), neocuproine (0.250 mL, 7.5 mM in ethanol) and NH4Ac buffer (0.250 mL, 1 M, pH 7.0) with standard/compound solutions at different concentrations. SA blank was prepared by adding sample solution to premixed reaction mixture CuCl2. The absorbances of the blank and sample were read at 450 nm after a 30-min incubation at room temperature. The absorbance of the blank was subtracted from that of the sample. CUPRAC activity was expressed as equivalents of trolox (mg TEAC/mg compound).

[2] = DPPH free radical scavenging method; conditions: concentration causing 50% scavenging of DPPH radical; Trolox standard
Procedure: The DPPH free radical scavenging activities of 8–14 compounds were determined using the method described before. Alcoholic solution of DPPH (1 mL, […] in methanol) was mixed with 8–14 compound solutions prepared in DMSO. […] DPPH gives a purple color in methanol. This color is decayed by antioxidant. So reduction in the absorbance indicates DPPH• scavenging activity. Trolox was used as standard radical scavenger and values were expressed as SC50 (μg compound per mL), the concentration of the samples that causes 50% scavenging of DPPH radical.

[3] = biological target: mushroom tyrosinase (Agaricus bisporus, UniProt C7FF04); experiment: Mushroom tyrosinase inhibition assay (L-DOPA substrate, 475 nm); assay type: biochemical; conditions: for IC50 values for the tyrosinase enzyme inhibition: abstract, unit not given; for Tyrosinase (IC50 μg/mL): mushroom tyrosinase, L-DOPA substrate, kojic acid positive control
Sequence of mushroom tyrosinase (C7FF04 1-392): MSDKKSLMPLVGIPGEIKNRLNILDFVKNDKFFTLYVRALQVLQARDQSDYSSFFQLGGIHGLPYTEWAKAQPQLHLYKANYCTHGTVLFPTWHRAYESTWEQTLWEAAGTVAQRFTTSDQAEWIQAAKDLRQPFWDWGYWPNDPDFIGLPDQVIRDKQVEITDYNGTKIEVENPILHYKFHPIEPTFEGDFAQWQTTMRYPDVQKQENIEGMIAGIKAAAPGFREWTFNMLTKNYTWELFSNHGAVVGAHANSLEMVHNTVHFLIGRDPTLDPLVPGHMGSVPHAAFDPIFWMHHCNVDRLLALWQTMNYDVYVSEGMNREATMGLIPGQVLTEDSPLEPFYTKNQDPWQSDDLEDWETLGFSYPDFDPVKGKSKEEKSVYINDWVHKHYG
Procedure: The mushroom tyrosinase inhibition assay was carried out according previously reported method. […] After 10 min of a preincubation period at room temperature, the enzymatic reaction was initiated with the addition of L-DOPA (3 mM, 20 μL) as substrate. The absorbance was read at 475 nm. The compound concentration giving 50% inhibition of tyrosinase activity was determined by interpolation of concentration-response curves. […] The extract concentration giving 50% (IC50) of the original tyrosinase activity was determined.
The position, number and nature of the substituent on benzene and pyridine rings were varied in order to identify the most appropriate group.

[4] = set-up: method as in PMID 33763478; conditions: comparator in literature study; cited from earlier work

melting point [°C]	IC50 values for the tyrosinase enzyme inhibition [3]	Tyrosinase (IC50 μg/mL) [3]	SMILES	CUPRAC (mg TEAC/mg) [1] [mg TEAC/mg]	DPPH, SC50 [2] [µg/mL]	CUPRAC values ([1]; as printed in the results text b37) [mg TEAC/mg]	antioxidant activity in DPPH assay IC50 [4] [µg/mL]
102 to 103			COc1ccccc1-c1cc(-c2ccc(OC)c(OC)c2OC)on1 [Compound 8, 3-(2-methoxyphenyl)-5-(2,3,4-trimethoxyphenyl)isoxazole]	1.156 ± 0.026	61.42 ± 1.41		
93 to 94	did not show any inhibition effect	No inhibition	COc1ccc(-c2cc(-c3ccc(OC)cc3OC)on2)cc1 [Compound 9, 3-(4-methoxyphenyl)-5-(2,4-dimethoxyphenyl)isoxazole]	0.856 ± 0.013	71.96 ± 2.36		
230 to 231	did not show any inhibition effect	No inhibition	Oc1cccc(-c2cc(-c3ccccc3)on2)c1 [Compound 10, 3-(3-hydroxyphenyl)-5-(phenyl)isoxazole]	0.789 ± 0.009	65.65 ± 1.69		
168 to 169			COc1ccc(-c2cc(-c3cccc(O)c3)no2)c(OC)c1 [Compound 11, 3-(3-hydroxyphenyl)-5-(2,4-dimethoxyphenyl)isoxazole]	0.584 ± 0.011	81.52 ± 3.66		
176 to 178			COc1ccc(OC)c(-c2cc(-c3ccc(O)cc3)no2)c1 [Compound 12, 3-(4-hydroxyphenyl)-5-(2,5-dimethoxyphenyl)isoxazole]	1.233 ± 0.015	40.21 ± 2.71		
			COc1cccc(-c2cc(-c3ccccn3)on2)c1 [Compound 13, 3-(3-methoxyphenyl)-5-(2-pyridinyl)isoxazole]	1.245 ± 0.019	57.32 ± 2.12	1.25 ± 0.019	
141 to 143	did not show any inhibition effect	No inhibition	COc1ccc(-c2cc(-c3ccncc3)on2)cc1 [Compound 14, 3-(4-methoxyphenyl)-5-(4-pyridinyl)isoxazole]	1.189 ± 0.021	54.41 ± 2.87		
			Cc1c(C)c2c(c(C)c1O)CCC(C)(C(=O)O)O2 (centres unmarked) [Trolox, reference compound]		5.56 ± 0.85		2.75
